Test system: humanized IgG (anti-glypican-3 antibody)-producing CHO cell line
Test: Antibody-producing fed-batch culture, CHO cell line transfected with antibody gene
Format: cell-based
Conditions: for concentration of lactic acid during culture: compared to fed-batch medium not containing the peptide; for antibody concentration after the 14-day culture: fed day 3-14 at 1.0 g/hr per L, control about 1.6 g/L; for antibody concentration higher than control: peptide-containing fed-batch medium vs fed-batch medium without peptide, day 14
Method: (§1) The initial culture medium was placed in a jar-type cell culture system, and then the CHO cell line was added thereto into a concentration of 2×10^5 cells/mL and was cultured under the conditions of 37° C. and 10% CO2. During the culture period of 14 days, a pH level of not lower than 7.0 and a dissolved oxygen level of 40% were automatically maintained. The fed-batch medium was continuously fed from the 3rd day to the 14th day of the culture at a constant flow rate (1.0 g/hr for 1 L of the initial culture medium). The culture medium was sampled at the start of the culture and on the 3rd, 5th, 7th, 10th, 12th, and 14th days. The number of viable cells in each sampled culture solution was counted by trypan blue staining. The antibody concentration in the centrifuged supernatant of each culture solution was measured by affinity chromatography using protein A, and the concentration of lactic acid was measured by an immobilized enzyme process.
as §1, with “concentration” for “number”, “the produced” for “viable cells in each sampled culture solution was counted by trypan blue staining. The”, “antibody” for “antibody concentration”, “the” for “the centrifuged”, “sample” for “solution”, “A; the survival rate was measured by trypan blue staining;” for “A,”

[1] = fed-batch medium containing 50 mM of the peptide

Which “concentration of lactic acid during culture” value does the source give for Cys-Tyr [dipeptide] here?
The value was “relatively low levels from the 5th day to the 10th day”.

And the “antibody concentration after the 14-day culture” value [1]?
Its value is “about 2.0 g/L”.

And the “antibody concentration higher than control” value?
Its value is “about 25%”.

Which “concentration of lactic acid during culture” value does the source give for Cys-Tyr-Ser [tripeptide] here?
The value was “relatively low levels from the 3rd day to the 10th day”.

What about the “antibody concentration after the 14-day culture” value (fed-batch medium containing 25 mM of the tripeptide) of the same substance?
The value was “about 2.1 g/L”.

And the “antibody concentration after the 14-day culture” value [1]?
The value was “about 2.1 g/L”.

And the “antibody concentration higher than control” value?
The value was “about 30%”.

From patent US8252557B2, “Peptide-containing culture medium for culturing animal cell” (Chugai Seiyaku Kabushiki Kaisha, priority 2008, dated 2012)
